Drawing on patent US20260015357A1, “MODULATORS OF NLRP3 INFLAMMASOME AND RELATED PRODUCTS AND METHODS” (Neumora Therapeutics, Inc., priority 2022, published 2026), this text covers IC50 for 41 compounds.

The test system of one assay is IL-6. Put plainly: IL-6 in supernatants of LPS-primed, nigericin-treated THP1 macrophages, Hu IL-6 AlphaLISA. It is filed as cell-based. Particulars: Homo sapiens, THP-1, PMA-differentiated, 1 hr compound, Nigericin 6.7 uM 3 hrs, IL-6 in supernatant. On the procedure: (§1) NLRP3 Inflammasome Activation and Cell Viability Assessment in THP1 Macrophages
(§2) THP1—Human acute monocytic leukemia cells were cultured (ATCC, cat #TIB-202) in Gibco RPMI-1640 medium (ThermoFisher cat #72400054) supplemented with 10% Heat Inactivated FBS at density between 3-8×10^5 viable cells/mi. The cells were then subcultured when the cell concentration reached 8×10^5 cells/mL (every 2-3 days).
(§3) The parameter wells were filled with 50 ul PBS and incubated at 37° C., 5% CO2 for 48 hrs.
(§4) After 48 hrs incubation, the PMA containing media was removed, and changed for 40 ul/well of fresh DMEM, 10% FBS, 1× GlutaMax and incubated at 37° C., 5% CO2 for 24 hrs.
(§5) The following day the cells were primed with LPS (E. coli) (Sigma, cat #L3129) […] in DMEM, 10% FBS, 1× GlutaMax for 3 hrs at 37° C., 5% CO2.
(§6) Following the LPS priming step, the cells were treated with compounds at 10 uM top final concentration, 1:4 dilution, 8 times: (10 uM, 2.5 uM, 0.625 uM, 0.156 uM, 0.039 uM, 0.0097 uM, 0.0024 uM, 0.0006 uM). DMSO was used as a vehicle control, and MCC950 (InvivoGen, cat #inh-mcc) was used at 1 uM as a positive control, and incubated for 1 hrs at 37° C., 5% CO2.
(§7) Following the 1 hr compound incubation, the NLRP3 inflammasome activation step was conducted by treating cells with Nigericin (InvivoGen, cat #tlrl-nig) at 6.7 uM final concentration for 3 hrs at 37° C., 5% CO2.
(§8) Thereafter, 30 ul samples of cells' supernatants were collected for cytokine analysis which was conducted on Hu IL-1β AlphaLISA (Perkin Elmer, cat #AL220C) and Hu IL-6 AlphaLISA (Perkin Elmer, cat #AL220C). The cells' viability was assessed by performing CellTiter-Glo Luminescent Assay (Promega, cat #G7572) according to the manufacturer's protocol.
(In general: Alpha assays give light when donor and acceptor beads are brought close together.)

The target in the next assay is T1, NLRP3 inflammasome (Homo sapiens, UniProt Q96P20).
T1 construct: host or cells: THP1 human acute monocytic leukemia cells, PMA-differentiated, LPS-primed
T1 sequence (Q96P20 whole entry): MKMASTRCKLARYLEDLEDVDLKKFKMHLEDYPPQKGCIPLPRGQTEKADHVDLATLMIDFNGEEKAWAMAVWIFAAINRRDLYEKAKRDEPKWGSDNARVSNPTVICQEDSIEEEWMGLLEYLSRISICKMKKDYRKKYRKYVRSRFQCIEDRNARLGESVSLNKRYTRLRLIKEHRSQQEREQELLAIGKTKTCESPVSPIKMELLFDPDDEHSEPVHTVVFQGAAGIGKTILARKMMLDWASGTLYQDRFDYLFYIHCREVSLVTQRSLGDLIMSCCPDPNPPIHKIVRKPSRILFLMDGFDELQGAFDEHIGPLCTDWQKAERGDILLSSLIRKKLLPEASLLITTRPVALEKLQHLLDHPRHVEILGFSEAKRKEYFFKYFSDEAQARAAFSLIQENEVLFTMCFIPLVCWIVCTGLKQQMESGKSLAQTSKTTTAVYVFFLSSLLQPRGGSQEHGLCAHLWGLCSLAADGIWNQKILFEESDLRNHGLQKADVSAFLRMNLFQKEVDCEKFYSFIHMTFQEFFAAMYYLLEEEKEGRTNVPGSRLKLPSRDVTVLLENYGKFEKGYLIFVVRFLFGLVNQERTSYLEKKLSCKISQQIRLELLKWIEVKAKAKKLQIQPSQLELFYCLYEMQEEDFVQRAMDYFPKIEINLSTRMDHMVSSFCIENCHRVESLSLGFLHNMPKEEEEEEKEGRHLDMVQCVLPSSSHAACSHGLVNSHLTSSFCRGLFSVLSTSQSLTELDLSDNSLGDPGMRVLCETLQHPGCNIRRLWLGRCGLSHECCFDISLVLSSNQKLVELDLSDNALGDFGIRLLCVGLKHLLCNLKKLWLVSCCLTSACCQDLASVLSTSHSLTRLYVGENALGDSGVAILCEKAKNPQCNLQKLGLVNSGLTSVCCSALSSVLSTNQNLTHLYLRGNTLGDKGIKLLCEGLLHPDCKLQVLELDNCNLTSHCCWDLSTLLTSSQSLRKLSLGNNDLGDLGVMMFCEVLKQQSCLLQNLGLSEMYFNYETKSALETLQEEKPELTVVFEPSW
Put plainly: NLRP3 inflammasome activation in LPS-primed, nigericin-activated THP1 macrophages, IL-1β AlphaLISA. The conditions noted are these: PMA-differentiated, 1 hr compound, Nigericin 6.7 uM 3 hrs, IL-1β in supernatant. In kind it is cell-based. On the procedure: as §1, §2, §3, §4, §5, §6, §7, §8

`CN1CCC[C@@H](Oc2nnc(-c3ccc(C(F)(F)F)cc3)c3cc[nH]c23)C1` [Compound 39]: the IC50 – broadly, the concentration that inhibits the measured activity by half – was in the range of 5 to 10 µM in the assay on IL-6 and 0.1 to 0.5 µM on NLRP3 inflammasome.
Consider `CN1CCC[C@@H](N(C)c2nnc(-c3ccccc3O)c3ccn(C)c23)C1` [Compound 18], for which the IC50 with IL-6 was 1 to 5 µM; against NLRP3 inflammasome, 1 to 10 µM.
In the case of `CN1CCC[C@@H](Nc2nnc(-c3ccc(F)cc3O)c3ccn(C)c23)C1` [Compound 78], the values for the IC50 in the assay on IL-6 and against NLRP3 inflammasome were 1 to 5 µM and less than 0.01 µM, respectively.
Take `CN1CCC[C@@H](N(C)c2nnc(-c3ccc(F)cc3O)c3ccsc23)C1` [Compound 98]: the IC50 in the assay on IL-6 was no less than 10 µM; on NLRP3 inflammasome, 0.1 to 0.5 µM.
Take `Cn1ccc2c(-c3ccc(C#N)cc3O)nnc(N[C@@H]3CCCN(c4ccncc4)C3)c21` [Compound 162]: the half-maximal inhibitory concentration (IC50) with IL-6 is no less than 10 µM; on NLRP3 inflammasome, 1 to 10 µM.
As to `Cn1ccc2c(-c3ccc(C(F)(F)F)cc3)nnc(N[C@@H]3CCCN(S(C)(=O)=O)C3)c21` [Compound 159], the figures for the IC50 in the assay on IL-6 and at NLRP3 inflammasome were no less than 10 µM and 1 to 10 µM, respectively.
Consider `CN1CCC[C@@H](Oc2nnc(-c3ccc(F)cc3O)c3ccn(C)c23)C1` [Compound 89], for which the figures for the IC50 in the assay on IL-6 and against NLRP3 inflammasome were no less than 10 µM and 0.1 to 0.5 µM, respectively.
`CN1CCC[C@@H](Nc2nnc(-c3ccc(Cl)cc3C(F)F)c3cnn(C)c23)C1` [Compound 118]: the IC50 in the assay with IL-6 was no less than 10 µM; against NLRP3 inflammasome, 0.01 to 0.1 µM.
As to `Cn1ncc2c(-c3ccc(C(F)(F)F)cc3)nnc(N[C@@H]3CCCN(C4CC4)C3)c21` [Compound 109], the values for the IC50 in the assay on IL-6 and at NLRP3 inflammasome were no less than 10 µM and 0.01 to 0.1 µM, respectively.
Regarding `Cn1ccc2c(-c3ccc(C#N)cc3O)nnc(N[C@@H]3CCCN(c4ccccc4)C3)c21` [Compound 161], the IC50 in the assay with IL-6 and on NLRP3 inflammasome was no less than 10 µM throughout.
On to `CN1C[C@H](Nc2nnc(-c3ccc(C(F)(F)F)cc3)c3cc[nH]c23)CC(F)(F)C1` [Compound 19], for which the IC50 in the assay with IL-6 lay in the range of 5 to 10 µM; on NLRP3 inflammasome, 0.1 to 0.5 µM.
Consider `Cc1cc(C#N)cc(O)c1-c1nnc(N[C@@H]2CCCN(C)C2)c2c1ccn2C` [Compound 127], for which the 50% inhibitory concentration (IC50) in the assay on IL-6 is 5 to 10 µM; against NLRP3 inflammasome, less than 0.01 µM.
For `CN1CCC[C@@H](N(C)c2nnc(-c3ccc(C(F)(F)F)cc3)c3ccsc23)C1` [Compound 95], the figures for the IC50 in the assay on IL-6 and on NLRP3 inflammasome were no less than 10 µM and 0.5 to 1 µM, respectively.
As to `CN1CCC[C@@H](N(C)c2nnc(-c3ccccc3O)c3[nH]ccc23)C1` (single isomer, unassigned) [Compound 68], the IC50 in the assay on IL-6 is 5 to 10 µM; against NLRP3 inflammasome, no less than 10 µM.
With `CN1CCC[C@@H](Nc2nnc(-c3ncc(C(F)(F)F)cc3Cl)c3ccn(C)c23)C1` [Compound 131], the IC50 in the assay with IL-6 was no less than 10 µM; against NLRP3 inflammasome it was 0.01 to 0.1 µM.
Consider `Cc1cc(-c2nnc(N[C@@H]3CCCN(C)C3)c3[nH]ccc23)ccc1C(F)(F)F` [Compound 23], for which the IC50 was 5 to 10 µM in the assay with IL-6 and 1 to 10 µM on NLRP3 inflammasome.
`N#Cc1ccc(-c2nnc(N[C@@H]3CCCN(CCO)C3)c3sncc23)c(O)c1` [Compound 151]: the IC50 in the assay with IL-6 is no less than 10 µM; on NLRP3 inflammasome, less than 0.01 µM.
On the same counts, the results for `Cc1cc2c(-c3ccc(C(F)(F)F)cc3)nnc(N[C@@H]3CCCN(C)C3)c2[nH]1` [Compound 21] are no less than 10 µM and less than 0.01 µM.
`Cn1ccc2c(-c3ccc(C#N)cc3O)nnc(N[C@H]3CN(CCF)CC(F)(F)C3)c21` [Compound 149]: the IC50 in the assay with IL-6 and against NLRP3 inflammasome was no less than 10 µM in each case.
Regarding `CN1CCC[C@@H](N(C)c2nnc(-c3ccc(F)cc3O)c3cc[nH]c23)C1` [Compound 96], the IC50 in the assay on IL-6 is no less than 10 µM; against NLRP3 inflammasome, 0.01 to 0.1 µM.
In the case of `Cc1cc(C(F)(F)F)ccc1-c1nnc(N[C@@H]2CCCN(C)C2)c2[nH]ccc12` [Compound 6], the IC50 in the assay with IL-6 was 5 to 10 µM; against NLRP3 inflammasome it was less than 0.01 µM.
On the same counts, the results for `CN1CCC[C@@H](Nc2nnc(-c3ccc(C(F)(F)F)cc3)c3c2ncn3C)C1` [Compound 29] are no less than 10 µM and 0.5 to 1 µM.
Consider `CN1CCC[C@@H](Nc2nnc(-c3ccc(C(F)(F)F)cc3)c3ccn(C)c23)C1` [Compound 26], for which the IC50 in the assay on IL-6 was 5 to 10 µM; on NLRP3 inflammasome it was 0.01 to 0.1 µM.
On to `Cn1ccc2c(-c3ccc(C#N)cc3O)nnc(N[C@@H]3CCCN(C4COC4)C3)c21` [Compound 160], for which the IC50 is no less than 10 µM in the assay on IL-6 and 1 to 10 µM against NLRP3 inflammasome.
For the compound `CC(C)N1CCC[C@@H](Nc2nnc(-c3ncc(C#N)cc3O)c3ccn(C)c23)C1` [Compound 99], the IC50 in the assay on IL-6 was 5 to 10 µM; at NLRP3 inflammasome, less than 0.01 µM.
For the compound `CCN1CCC[C@@H](Nc2nnc(-c3ccc(C(F)(F)F)cc3)c3ccn(C)c23)C1` [Compound 76], the figures for the IC50 in the assay with IL-6 and against NLRP3 inflammasome were no more than 1 µM and less than 0.01 µM, respectively.
Consider `CN1CCC[C@@H](Nc2nnc(-c3ccccc3O)c3c2ccn3C)C1` (single isomer, unassigned) [Compound 67], for which the IC50 in the assay on IL-6 was no less than 10 µM; at NLRP3 inflammasome it was 0.01 to 0.1 µM.
Take `Cc1cn(C)c2c(N[C@@H]3CCCN(C)C3)nnc(-c3ccc(C(F)(F)F)cc3)c12` [Compound 97]: the IC50 in the assay on IL-6 is no less than 10 µM; on NLRP3 inflammasome it was 0.1 to 0.5 µM.
Turning to `CN1CCC[C@@H](N(C)c2nnc(-c3ccc(F)cc3O)c3ccn(C)c23)C1` [Compound 81], the IC50 in the assay with IL-6 was in the range of 1 to 5 µM; at NLRP3 inflammasome, 0.1 to 0.5 µM.
For the compound `COc1cc(C)ccc1-c1nnc(N[C@@H]2CCCN(C)C2)c2c1cnn2C` [Compound 167], the IC50 is no less than 10 µM in the assay with IL-6 and 1 to 10 µM on NLRP3 inflammasome.
The corresponding values for `Cc1cc(C#N)cc(O)c1-c1nnc(N[C@@H]2CCCN(C)C2)c2c1cnn2C` [Compound 115] are no less than 10 µM and less than 0.01 µM.
In the case of `CN1CCC[C@@H](Nc2nnc(-c3ccc(C(F)(F)F)cc3)c3c2cnn3C)C1` [Compound 32], the IC50 in the assay with IL-6 was no less than 10 µM; against NLRP3 inflammasome, less than 0.01 µM.
As for `Cc1cc(C(F)(F)F)ccc1-c1nnc(N[C@@H]2CCCN(C)C2)c2c1cnn2C` [Compound 110], the IC50 in the assay on IL-6 was no less than 10 µM; against NLRP3 inflammasome it was 0.01 to 0.1 µM.
As to `CN1CCC[C@@H](Nc2nnc(-c3ccc(Cl)cc3)c3[nH]ccc23)C1` [Compound 11], the figures for the IC50 in the assay on IL-6 and at NLRP3 inflammasome were no less than 10 µM and 1 to 10 µM, respectively.
With `CN1C[C@H](Nc2nnc(-c3ccc(C#N)cc3O)c3ccn(C)c23)CC(F)(F)C1` [Compound 145], the IC50 with IL-6 and against NLRP3 inflammasome was no less than 10 µM each time.
`CN1CCC[C@@H](Nc2nnc(-c3ccc(C(F)(F)F)cc3)c3c2CCO3)C1` [Compound 59]: the IC50 in the assay on IL-6 and against NLRP3 inflammasome was no less than 10 µM each time.
On to `CN1CCC[C@@H](Nc2nnc(-c3ccc(C#N)cc3C(F)F)c3cnn(C)c23)C1` [Compound 117], for which the IC50 with IL-6 was no less than 10 µM; on NLRP3 inflammasome it was 0.1 to 0.5 µM.
Consider `CN1CCC[C@@H](Nc2nnc(-c3ccc(C(F)(F)F)cc3)c3cnn(C)c23)C1` [Compound 31], for which the IC50 in the assay with IL-6 was no less than 10 µM; at NLRP3 inflammasome, 0.01 to 0.1 µM.
As for `CN1CCC[C@@H](Nc2nnc(-c3ccc(C(F)(F)F)cc3C(F)F)c3cnn(C)c23)C1` [Compound 119], the IC50 is no less than 10 µM with IL-6 and 0.01 to 0.1 µM against NLRP3 inflammasome.
For the compound `CNCCN1CCC[C@@H](Nc2nnc(-c3ccc(C#N)cc3O)c3ccn(C)c23)C1` [Compound 155], the figures for the half-maximal inhibitory concentration (IC50) with IL-6 and on NLRP3 inflammasome were no less than 10 µM and 0.1 to 0.5 µM, respectively.
With `CN1CCC[C@@H](Oc2nnc(-c3ccc(C(F)(F)F)cc3)c3ccn(C)c23)C1` [Compound 85], the values for the IC50 in the assay on IL-6 and against NLRP3 inflammasome were 5 to 10 µM and 0.1 to 0.5 µM, respectively.
